The results in this text go back to ChEMBL document CHEMBL1201862, “PubChem BioAssay data set” (2004).

Test systems include U-251; CCRF-CEM; SK-MEL-5; HCT-15; OVCAR-5; SNB-19; SK-OV-3; BT-549; UACC-62; M14; SK-MEL-28; IGROV-1; NCI-H226; NCI-H460; OVCAR-4; HCC 2998; A498; DU-145; SNB-75; CAKI-1.
Assay in all cases: DTP human tumour cell line panel, 48 h

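How tested: cells in 96-well plates exposed to compound for 48 hours at five concentrations. At the GI50, growth is halved.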 Calls of active or inactive are those of the source. Rule as the data show it: active = GI50 up to about 1.1 µM and inactive = higher.

Take `Oc1cc(-c2cccc(Br)c2)nc2cc3c(cc12)OCO3`: the GI50 was 3.56 µM (inactive) in the assay on U-251; 8.38 µM (inactive) in the assay on CCRF-CEM; 1.38 µM (inactive) in the assay on SK-MEL-5; 4.14 µM in the assay with HCT-15; 51.5 µM (inactive) in the assay with OVCAR-5; 3.37 µM (inactive) in the assay on SNB-19. Moreover, the GI50 is 3.8 µM (inactive) with SK-OV-3; 3.6 µM (inactive) in the assay on BT-549; 1.75 µM (inactive) in the assay with UACC-62; 2.65 µM (inactive) in the assay on M14; 2.77 µM (inactive) with SK-MEL-28; 1.8 µM (inactive) with IGROV-1. Also, the GI50 was 6.75 µM (inactive) in the assay on NCI-H226; 4.01 µM (inactive) in the assay with NCI-H460; > 30.8 µM (inactive) in the assay with OVCAR-4; 15.1 µM (inactive) in the assay on HCC 2998; 3.08 µM (inactive) in the assay on A498; 5.43 µM (inactive) with DU-145. Moreover, the GI50 in the assay with SNB-75 was 2.72 µM (inactive).

On to `O=[N+]([O-])c1cccc(-c2cn3c(n2)Cc2ccccc2C3)c1`, for which the GI50 in the assay with U-251 is 39.7 µM (inactive); in the assay with CCRF-CEM, 15.9 µM (inactive); in the assay with SK-MEL-5 it was 28.6 µM (inactive); in the assay with HCT-15, more than 100 µM; with OVCAR-5, 17.8 µM (inactive); in the assay with SNB-19, > 100 µM (inactive). Moreover, the GI50 is > 100 µM (inactive) in the assay on SK-OV-3; > 100 µM (inactive) with BT-549; 53 µM (inactive) with UACC-62; 42.4 µM (inactive) in the assay on M14; > 100 µM (inactive) with SK-MEL-28; > 100 µM (inactive) in the assay on IGROV-1. The GI50 in the assay on NCI-H226 was > 100 µM (inactive); in the assay with NCI-H460, 85.7 µM (inactive); with OVCAR-4, > 100 µM (inactive); in the assay with A498, 16.9 µM (inactive); in the assay with DU-145 it was > 100 µM (inactive); in the assay with CAKI-1, 15.6 µM (inactive). Also, the GI50 with SNB-75 is > 100 µM (inactive).

Regarding `CC1OC(OC2C(O[C@@H]3C[C@@H]4CC[C@@H]5[C@H](CC[C@]6(C)[C@@H]7[C@H](C[C@@H]56)O[C@]5(CC[C@@H](C)CO5)[C@H]7C)[C@@]4(C)C[C@H]3O)OC(CO)C(OC3OC(CO)C(O)C(O)C3O)C2O)C(O)C(O)C1O` (stereo partly specified), the GI50 is 1.81 µM (inactive) in the assay on U-251; 1.92 µM (inactive) in the assay on CCRF-CEM; 1.55 µM (inactive) with SK-MEL-5; 2.17 µM in the assay on HCT-15; 1.59 µM (inactive) in the assay on OVCAR-5; 1.79 µM (inactive) in the assay on SNB-19. Also, the GI50 in the assay with SK-OV-3 was 1.69 µM (inactive); with BT-549, 2.23 µM (inactive); in the assay on UACC-62, 1.92 µM (inactive); in the assay with M14 it was 1.69 µM (inactive); with SK-MEL-28, 1.75 µM (inactive); with IGROV-1 it was 1.14 µM (inactive). Moreover, the GI50 in the assay on NCI-H226 was 1.44 µM (inactive); with NCI-H460, 1.76 µM (inactive); with OVCAR-4, 2.06 µM (inactive); with A498 it was 1.71 µM (inactive); in the assay on DU-145, 2.08 µM (inactive); with CAKI-1, 1.78 µM (inactive). Moreover, the GI50 in the assay with SNB-75 was 2.25 µM (inactive).

For the compound `CCN(CC)CCC(=O)NC1c2ccc(Cl)cc2Oc2c(C)cccc21` (stereo unspecified), the GI50 in the assay with U-251 was > 10 µM (inactive); in the assay with CCRF-CEM, 17.2 µM (inactive); with SK-MEL-5, 13.3 µM (inactive); with HCT-15, 18.7 µM; in the assay on OVCAR-5, 15.6 µM (inactive); with SNB-19, 14 µM (inactive). The GI50 in the assay with SK-OV-3 was 17.6 µM (inactive); in the assay on BT-549, 13.9 µM (inactive); in the assay on UACC-62 it was 16.9 µM (inactive); with M14 it was 17.5 µM (inactive); with SK-MEL-28, 14.6 µM (inactive); in the assay with IGROV-1, 13 µM (inactive). In addition, the GI50 with NCI-H460 is 16.6 µM (inactive); with OVCAR-4 it was 14.3 µM (inactive); in the assay on HCC 2998 it was 24.2 µM (inactive); with DU-145, 16 µM (inactive); in the assay on SNB-75, 10.2 µM (inactive).

Consider `O=P(O)(O)CN1CCNCCN(CP(=O)(O)O)CCN(CP(=O)(O)O)CCNCC1`, for which the GI50 was > 100 µM (inactive) in the assay with U-251; > 100 µM (inactive) in the assay on CCRF-CEM; 77300 µM (inactive) in the assay on SK-MEL-5; more than 100 µM in the assay with HCT-15; > 100 µM (inactive) in the assay with OVCAR-5; > 100 µM (inactive) with SNB-19. In addition, the GI50 in the assay on SK-OV-3 was > 100 µM (inactive); in the assay on BT-549, > 100 µM (inactive); in the assay on UACC-62 it was > 100 µM (inactive); in the assay on M14, > 100 µM (inactive); in the assay on SK-MEL-28, > 100 µM (inactive); with IGROV-1, 65900 µM (inactive). Moreover, the GI50 in the assay with NCI-H226 is 9.48 µM (inactive); in the assay on NCI-H460, 42400 µM (inactive); in the assay with OVCAR-4, > 100 µM (inactive); with A498, 93.5 µM (inactive); in the assay on DU-145, > 100 µM (inactive); with CAKI-1, 22500 µM (inactive). Also, in the assay with SNB-75, the GI50 is 24.4 µM (inactive).

With `Cc1cc2c(c(C(=O)NCCC(=O)O)c1)Oc1c(cc(C)cc1C(=O)NCCC(=O)O)S2`, the GI50 is > 100 µM (inactive) in the assay on U-251; > 100 µM (inactive) with CCRF-CEM; more than 100 µM in the assay on HCT-15; > 100 µM (inactive) in the assay with OVCAR-5; > 100 µM (inactive) in the assay on SNB-19; > 100 µM (inactive) with SK-OV-3. Further, the GI50 in the assay with BT-549, with UACC-62, with M14, in the assay with SK-MEL-28, in the assay on IGROV-1 and in the assay on NCI-H226 was > 100 µM (inactive) each time. Also, the GI50 in the assay with OVCAR-4, in the assay with HCC 2998, in the assay on DU-145, in the assay on CAKI-1 and with SNB-75 was > 100 µM (inactive) each time.

With `CO/C(=N\N=C\c1cccc(Cl)c1)c1ccncc1`, the GI50 in the assay with U-251 was > 10 µM (inactive); in the assay with CCRF-CEM it was > 10 µM (inactive); with HCT-15, more than 10 µM; in the assay with OVCAR-5, > 10 µM (inactive); with SNB-19, > 10 µM (inactive); with BT-549 it was > 10 µM (inactive). For the same compound, the GI50 with M14, in the assay with NCI-H226, in the assay with NCI-H460, in the assay on OVCAR-4, in the assay on HCC 2998 and in the assay with DU-145 was > 10 µM (inactive) in each case. The GI50 in the assay on CAKI-1 is > 10 µM (inactive).

In the case of `C#CCOCC12C=CC(O1)C1C(=O)N(C)C(=O)C12` (stereo unspecified), the GI50 was > 100 µM (inactive) in the assay with U-251; > 100 µM (inactive) with CCRF-CEM; > 100 µM (inactive) in the assay with SK-MEL-5; more than 100 µM in the assay on HCT-15; > 100 µM (inactive) with OVCAR-5; > 100 µM (inactive) with SNB-19. Moreover, the GI50 with SK-OV-3, in the assay on BT-549, in the assay on UACC-62, with M14, with SK-MEL-28 and with IGROV-1 was > 100 µM (inactive) throughout. Moreover, the GI50 with NCI-H226, with NCI-H460, in the assay on OVCAR-4, in the assay on HCC 2998, in the assay on A498 and in the assay on DU-145 was > 100 µM (inactive) throughout. Also, the GI50 with SNB-75 was > 100 µM (inactive).

On to `CN1CCN(C(=S)N(C(=O)c2cccs2)c2ccccc2)CC1`, for which the GI50 is > 100 µM (inactive) with U-251; > 100 µM (inactive) with CCRF-CEM; > 100 µM (inactive) in the assay with SK-MEL-5; more than 100 µM with HCT-15; 94.6 µM (inactive) with OVCAR-5; > 100 µM (inactive) with SNB-19. The GI50 in the assay with BT-549, in the assay with UACC-62, in the assay with M14, in the assay with SK-MEL-28, in the assay with IGROV-1 and with NCI-H226 was > 100 µM (inactive) throughout. Further, the GI50 is > 100 µM (inactive) in the assay on NCI-H460; > 100 µM (inactive) in the assay on OVCAR-4; > 100 µM (inactive) in the assay on HCC 2998; > 100 µM (inactive) with DU-145; 56 µM (inactive) in the assay on SNB-75.

As to `CCCC(C)c1c(Cl)nc(Cl)nc1Cl` (stereo unspecified), the GI50 was 9.38 µM (inactive) with U-251; 0.189 µM (active) in the assay with CCRF-CEM; 3.41 µM (inactive) with SK-MEL-5; 7.38 µM in the assay with HCT-15; 21.2 µM (inactive) with OVCAR-5; 18.2 µM (inactive) in the assay with SNB-19. In addition, the GI50 in the assay on SK-OV-3 is 20.2 µM (inactive); with BT-549, 1.99 µM (inactive); in the assay on UACC-62, > 10 µM (inactive); with M14, 1.71 µM (inactive); in the assay with SK-MEL-28 it was 3.52 µM (inactive); in the assay on IGROV-1, 14.7 µM (inactive). The GI50 is 4.34 µM (inactive) in the assay on NCI-H226; 11 µM (inactive) in the assay with NCI-H460; 17.1 µM (inactive) with OVCAR-4; 5.18 µM (inactive) with HCC 2998; 15 µM (inactive) in the assay on DU-145; 14.5 µM (inactive) with SNB-75.

As for `CC[C@](C)(O)C(=O)O[C@H]1C(=O)O[C@@H]2C[C@H]3C(C)=CC(=O)[C@@H](O)[C@]3(C)[C@H]3[C@@]4(O)OC[C@]32[C@@H]1[C@@H](C)[C@H]4O` [GLAUCARUBINONE], the GI50 is 0.05 µM (active) in the assay on U-251; 0.05 µM (active) in the assay with CCRF-CEM; 0.0442 µM (active) in the assay with SK-MEL-5; 0.0885 µM with HCT-15; 0.658 µM (active) in the assay on OVCAR-5; 0.0933 µM (active) in the assay on SNB-19. Moreover, the 50% growth inhibitory concentration (GI50) with SK-OV-3 is 1.02 µM (active); in the assay on BT-549, 0.229 µM (active); in the assay on UACC-62 it was 0.051 µM (active); with M14, 0.107 µM (active); in the assay with SK-MEL-28, 0.05 µM (active); in the assay with IGROV-1, 0.05 µM (active). Also, the GI50 was 0.113 µM (active) in the assay with NCI-H226; 0.0912 µM (active) in the assay with NCI-H460; 0.321 µM (active) with OVCAR-4; 0.0679 µM (active) in the assay with HCC 2998; 0.32 µM (active) with A498; 0.824 µM (active) in the assay with DU-145. The GI50 with SNB-75 is 0.0585 µM (active).

Usually GI50 stands for the concentration that inhibits growth by half.
